Source: patent US7687453B2, “Method for administering insulin to the buccal region” (Generex Pharmaceuticals Incorporated, priority 1998, dated 2010)

System: meal glucose
Assay: Meal glucose, chewable gum insulin vs injection, Type II diabetic volunteers (Example 13)
Format: in vivo, human
Conditions: injection 10 units, avg of five Type II diabetics, meal 30 min after dosing
Protocol: The mixed micellar formulation in chewable stick form was tested in diabetic volunteers under controlled conditions to determine the oral insulin effect on meal glucose when compared to injected insulin.
In one set of tests, five Type II diabetic human volunteers who took insulin, by injection three times a day, were studied. In another set of tests the volunteers were tested with the chewable gum insulin, taken orally. The volunteers fasted from midnight prior to the tests, with food being taken 30 minutes after dosing. The meals were standard Sastacal 240 mL liquid diet approved by the Diabetic Society, containing 400 calories.
On the first day, the volunteers received 10 units insulin by injection (regular fast acting insulin, available from Eli Lilly). On the second day, the volunteers received 30 units of the above-prepared chewable gum oral insulin (3 times the injection dose). in both tests, blood glucose levels were monitored every 15 minutes by Bayer's Glucometer Elite.

regular fast acting insulin: regular fast acting insulin, available from Eli Lilly, given by injection (10 units)
Blood glucose levels (0 min): 8.8 mmol/L
Blood glucose levels (15 min): 8.2 mmol/L
Blood glucose levels (30 min): 8.0 mmol/L
Blood glucose levels (45 min): 8.4 mmol/L
Blood glucose levels (60 min): 9.2 mmol/L
Blood glucose levels (75 min): 10.3 mmol/L
Blood glucose levels (90 min): 11.8 mmol/L
Blood glucose levels (105 min): 11.6 mmol/L
Blood glucose levels (120 min): 11.0 mmol/L
Blood glucose levels (135 min): 10.2 mmol/L
Blood glucose levels (150 min): 9.6 mmol/L
Blood glucose levels (165 min): 9.5 mmol/L
Blood glucose levels (180 min): 9.1 mmol/L
Blood glucose levels (195 min): 8.7 mmol/L
Blood glucose levels (210 min): 8.2 mmol/L
Blood glucose levels (225 min): 8.0 mmol/L
Blood glucose levels (240 min): 7.5 mmol/L
